From article PMC6009881, “New sulfurated derivatives of cinnamic acids and rosmaricine as inhibitors of STAT3 and NF-κB transcription factors” (Journal of Enzyme Inhibition and Medicinal Chemistry, 2017)
Structures can show the parent of a compound that is named as a salt.

Experiments:
[1] = target: T1, SH2-domain of STAT1 (Homo sapiens, UniProt P42224); assay: STAT AlphaScreen-based assay (STAT1 selectivity); assay type: binding; conditions: for inhibition at 30 µM: read-out: STAT1 % inhibition ± SD at 30 μM, 30 μM; for IC50: read-out: STAT1 IC50 ±SD
T1 sequence (P42224 1-750): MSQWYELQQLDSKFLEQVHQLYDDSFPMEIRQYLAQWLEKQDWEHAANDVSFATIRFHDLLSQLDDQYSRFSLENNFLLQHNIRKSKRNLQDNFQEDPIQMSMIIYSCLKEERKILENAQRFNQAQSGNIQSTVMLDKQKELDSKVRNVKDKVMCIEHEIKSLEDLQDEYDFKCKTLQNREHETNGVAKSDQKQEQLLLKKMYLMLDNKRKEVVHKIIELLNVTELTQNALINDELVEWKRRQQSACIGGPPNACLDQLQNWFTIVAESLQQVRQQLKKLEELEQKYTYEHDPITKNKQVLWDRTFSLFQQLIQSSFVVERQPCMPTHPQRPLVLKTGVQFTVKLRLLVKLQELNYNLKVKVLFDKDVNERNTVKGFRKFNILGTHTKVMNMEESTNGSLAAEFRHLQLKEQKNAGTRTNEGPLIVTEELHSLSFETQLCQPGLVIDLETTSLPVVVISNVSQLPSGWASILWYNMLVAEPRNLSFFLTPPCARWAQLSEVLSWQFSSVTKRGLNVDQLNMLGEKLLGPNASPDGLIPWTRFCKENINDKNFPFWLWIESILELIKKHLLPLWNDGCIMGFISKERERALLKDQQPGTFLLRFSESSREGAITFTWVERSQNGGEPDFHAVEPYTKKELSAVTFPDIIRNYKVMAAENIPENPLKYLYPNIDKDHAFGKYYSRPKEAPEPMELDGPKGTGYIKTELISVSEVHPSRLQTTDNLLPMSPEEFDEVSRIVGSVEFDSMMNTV
Method: STAT3 inhibitory activity of the described compounds was tested by the AlphaScreen-based assay to evaluate the potential inhibition of the interaction between STAT3-SH2 domain and pTyr-containing peptides according to the previously reported procedure. For the most interesting compounds, selectivity tests versus STAT1 were performed.
The new sulfurated-drug hybrids, together with their parent compounds have been submitted to the AlphaScreen-based assay, to investigate their ability to bind STAT3 directly, through the evaluation of the inhibition of the binding of SH2-containing proteins to their correspondent phosphopeptides, the physiological ligands. […] Since AlphaScreen is a cell-free assay, not always there is a correspondence between the potency of STAT3 inhibition and cytotoxicity, probably due to not optimal physicochemical properties of the tested compounds, such as solubility and chemical stability in the culture medium and cell permeation.

[2] = target: STAT3-SH2 domain (Homo sapiens, UniProt P40763); assay: STAT AlphaScreen-based assay (STAT3); assay type: binding; conditions: for IC50: read-out: STAT3 IC50 ±SD; for inhibition at 30 µM: read-out: STAT3 % inhibition ± SD at 30 μM
[3] = test system: STAT3 reporter activity in HeLa cells; assay: STAT3 luciferase reporter gene assay; assay type: cell-based; conditions: Homo sapiens, 2 h pretreatment, oncostatin M 10 ng/ml 4 h, read-out: STAT3 reporter assay (HeLa) IC50 ±SD
Method: STAT3 reporter HeLa stable cell lines (Signosis Inc, Santa Clara, CA) were incubated in a 96-well microplate for 24 h. Cells were pretreated with test compounds for 2 h, and 10 ng/ml (w/v) of oncostatin M were applied and incubated for 4 h. Cells were washed with medium not supplemented with phenol red, and Steady-Glo® reagent (Promega, Madison, WI) was applied. After 15 min incubation, the signals were detected by ARVO Light 1420 (PerkinElmer Life Sciences, Waltham, MA). The relative signal intensity was calculated in each well as the ratio for the mean signal of vehicle.

[4] = test system: NF-κB promoter activity in HCT-116 cells; assay: Luciferase reported NF-κB promoter activity assay; assay type: cell-based; conditions: Homo sapiens, 2 h pre-treatment, TNF-α 10 ng/ml, NA = not active up to 100 μM, read-out: NF-κB promoter assay (HCT-116) IC50 ±SD
Method: To measure the NF-κB promoter activity, HCT-116 cells were seeded in 100 mm dish and transiently transfected with 6 μg of DNA (NF-κB plasmid, containing luciferase reporter gene[57] with turbofect reagent (Carlo Erba Reagents). After 24 h, cells were seeded in 48-well plates (40.000 cells per well). On the next day, cells were incubated with our compounds for 2 h (pre-treatment) and then TNF-α was added in every well at (10 ng/ml). After 5–6 h, luciferase activity was measured by using Neolite reagent (PerkinElmer Life Sciences, Waltham, MA) according to the manufacturer’s instructions.

[5] = test system: HCT-116 cells; assay: MTT assay, cytotoxicity on HCT-116; assay type: cell-based, human; conditions: human, HCT-116 cells, MTT assay, 48 h; NA = not active up to 100 μM; read-out: Cytotoxicity (HCT-116) IC50 ±SD
Method: Following the same protocol used for previous cytotoxicity assays by N. Ferri[55], cells were seeded in 48-well plate (40.000 cells/well) and, after 24 h, they were incubated with different concentrations of our compounds for 48 h.
The determination of the conversion of MTT (3-(4,5-dimethyl-2-thiazolyl)-2,5-diphenyl-2H-tetrazolium bromide) to formazan was determined by using a commercially available kit (Millipore, Billerica, MA), according to the manufacturer’s instructions.

Sequence of STAT3-SH2 domain (P40763 whole entry, the tested form may be a part): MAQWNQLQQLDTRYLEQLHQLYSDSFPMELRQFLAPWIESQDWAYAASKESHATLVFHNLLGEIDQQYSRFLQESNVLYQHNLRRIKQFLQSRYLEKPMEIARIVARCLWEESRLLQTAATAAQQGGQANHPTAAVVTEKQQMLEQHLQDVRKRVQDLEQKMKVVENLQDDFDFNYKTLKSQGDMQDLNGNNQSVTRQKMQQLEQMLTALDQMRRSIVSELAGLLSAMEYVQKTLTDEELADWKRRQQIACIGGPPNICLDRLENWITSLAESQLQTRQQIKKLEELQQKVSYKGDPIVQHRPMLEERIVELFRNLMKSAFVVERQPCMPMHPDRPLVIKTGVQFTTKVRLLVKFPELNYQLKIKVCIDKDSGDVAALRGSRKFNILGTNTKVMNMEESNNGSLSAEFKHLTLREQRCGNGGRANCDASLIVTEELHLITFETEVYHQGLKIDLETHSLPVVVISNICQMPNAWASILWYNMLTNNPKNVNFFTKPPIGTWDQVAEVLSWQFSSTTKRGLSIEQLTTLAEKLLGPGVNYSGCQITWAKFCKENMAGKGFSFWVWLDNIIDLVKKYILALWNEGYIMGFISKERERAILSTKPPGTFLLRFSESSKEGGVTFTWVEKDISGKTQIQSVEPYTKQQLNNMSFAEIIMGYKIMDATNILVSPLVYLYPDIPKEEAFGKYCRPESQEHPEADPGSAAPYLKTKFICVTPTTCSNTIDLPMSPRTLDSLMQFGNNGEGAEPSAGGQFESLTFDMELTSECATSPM

Row | inhibition at 30 µM [1] [%] | IC50 [1] [µM] | IC50 ([2]; AlphaScreen assay) [µM] | inhibition at 30 µM ([2]; AlphaScreen assay) [%] | Compound | also measured
1 | 11.2 | > 30 | > 30 | 42 ± 4.7 | C=CCSSCCC(=O)OC [Compound 10, Methyl 3-(allyldisulfanyl)propanoate] | 
2 | 37.7 ± 7.5 | > 30 | 5.5 ± 0.2 | 70 ± 1.7 | C=CCSSCCOC(=O)/C=C/c1ccc(O)c(O)c1 [Compound 23, (E)-2-(allyldisulfanyl)ethyl 3-(3,4-dihydroxyphenyl)acrylate] | IC50 [3]: 94.4 ± 26.1 µM; IC50 [4]: 163 ± 11.1 µM; IC50 at 48 h [5]: 73 ± 8 µM
3 |  | > 3 | > 30 | -10.2 | CS(=O)(=O)SCCN [Compound 3, S-2-aminoethyl methanesulfonothioate hydrobromide] | inhibition at 3 µM [1]: 14.5%; inhibition at 3 µM ([2]; AlphaScreen assay, 3 μM): 46.8%
4 | 86 ± 6.7 | 1.8 ± 0.4 | 0.3 | 100 ± 0.1 | COc1cc(/C=C/C(=O)OCCCCSS(C)(=O)=O)ccc1O [Compound 15, (E)-4-(methylsulfonylthio)butyl 3-(4-hydroxy-3-methoxyphenyl)acrylate] | IC50 [3]: 57.5 ± 1.1 µM; IC50 [4]: 94 ± 4.6 µM; IC50 at 48 h [5]: 64.4 ± 9.1 µM
5 |  |  | > 30 | 11.6 | CS(=O)(=O)SCCO [Compound 1, S-2-hydroxyethyl methanesulfonothioate] | 
6 | 44.2 ± 1.9 | > 30 | 28.5 ± 0.7 | 51.3 ± 0.7 | COc1cc(/C=C/C(=O)Oc2ccc(-c3cc(=S)ss3)cc2)ccc1O [Compound 18, (E)-4-(3-thioxo-3H-1,2-dithiol-5-yl)phenyl 3-(4-hydroxy-3-methoxyphenyl)acrylate] | 
7 |  |  | > 30 | 2.1 ± 2.3 | COC(=O)/C=C/c1ccc(O)c(OC)c1 [Compound 13] | 
8 |  | > 3 | 4.7 ± 1.1 | 72.5 ± 4.8 | CS(=O)(=O)SCCCCC(=O)O [Compound 6, 5-(methanesulfonylthio)pentanoic acid] | inhibition at 3 µM [1]: 8.6%
9 |  |  | > 30 | 12.8 ± 1.1 | COC(=O)/C=C/c1ccc(O)c(O)c1 [Compound 20, (E)-methyl 3-(3,4-dihydroxyphenyl)acrylate] | IC50 at 48 h [5]: 90.8 µM
10 | 12 ± 4.7 | > 30 | 7.8 ± 0.6 | 67.9 ± 0.8 | C=CCSSCCOC(=O)/C=C/c1ccc(O)c(OC)c1 [Compound 17, (E)-2-(allyldisulfanyl)ethyl 3-(4-hydroxy-3-methoxyphenyl)acrylate] | 
11 | 70.8 ± 1.2 | 20.1 ± 0.4 | 1.9 ± 0.2 | 99.6 ± 0.1 | COC(=O)CCCCSS(C)(=O)=O [Compound 7, Methyl 5-((methylsulfonyl)thio)pentanoate] | 
12 |  |  | > 30 | 43.9 ± 3.6 | C=CCSSCCC(=O)O [Compound 9, 3-(allyldisulfanyl)propionic acid] | 
13 |  |  | > 30 | 0.2 ± 8.2 | COc1cc(/C=C/C(=O)O)ccc1O [Compound 12, ferulic acid, reference compound] | 
14 | 98.4 ± 0.9 | 6.3 ± 0.5 | 0.6 ± 0.1 | 100 ± 0.1 | COCCOCOc1ccc(/C=C/C(=O)OCCSS(C)(=O)=O)cc1OCOCCOC [Compound 28, (E)-2-(methylsulfonylthio)ethyl 3-(3,4-bis((2-methoxyethoxy)methoxy)phenyl)acrylate] | 
15 | 63.3 ± 0.5 | 19.5 ± 0.3 | 1.1 | 100.1 ± 0.1 | COCCOCOc1ccc(/C=C/C(=O)NCCSS(C)(=O)=O)cc1OCOCCOC [Compound 29, (E)-S-2-(3-(3,4-bis((2-methoxyethoxy)methoxy)phenyl)acrylamido)ethyl methanesulfonothioate] | melting point: 62.3 to 64.6 °C
16 | 73.7 ± 1.4 | 8.6 ± 0.7 | 4.4 ± 0.3 | 88.4 ± 0.5 | CS(=O)(=O)SCCCCO [Compound 2, S-4-hydroxybutyl methanesulfonothioate] | 
17 |  |  | > 30 | 3.8 ± 2.8 | CS(=O)(=O)CCCCC(=O)O [Compound 8, 5-(Methylsulfonyl)pentanoic acid] | STAT3 IC50 ±SD ([2]; AlphaScreen assay): loss of activity on STAT3; melting point: 111.3 to 112.8 °C
18 | -17.8 ± 0.3 | > 30 | 0.9 ± 0.1 | 99.8 ± 0.1 | CS(=O)(=O)SCCNC(=O)/C=C/c1ccc(O)c(O)c1 [Compound 22, (E)-S-2-(3-(3,4-dihydroxyphenyl)acrylamido)ethyl methanesulfonothioate] | 
19 | 4.1 ± 5.4 | > 30 | 1.8 ± 0.5 | 107.8 ± 0.1 | COc1cc(/C=C/C(=O)NCCSS(C)(=O)=O)ccc1O [Compound 16, (E)-S-2-(3-(4-hydroxy-3-methoxyphenyl)acrylamido)ethyl methanesulfonothioate] | 
20 | 11.7 ± 6 | > 30 | 22.2 ± 3 | 55.7 ± 2.5 | C=CCSSCCO [Compound 4, 2-(Allyldisulfanyl)ethanol] | 
21 | 104 ± 1.7 | 1.9 ± 0.2 | 0.3 | 100 ± 0.1 | CS(=O)(=O)SCCOC(=O)/C=C/c1ccc(Cl)c(Cl)c1 [Compound 26, (E)-2-(methylsulfonylthio)ethyl 3-(3,4-dichlorophenyl)acrylate] | melting point: 69.6 to 71.2 °C
22 |  |  | > 30 | 43.7 | Oc1ccc(-c2cc(=S)ss2)cc1 [Compound 5, 5-(4-hydroxyphenyl)-1,2-dithiol-3-thione] | IC50 [4]: 36.7 ± 11.4 µM; IC50 at 48 h [5]: 71.2 ± 15 µM
23 |  |  | > 100 | -1.2 ± 6 | O=C(O)c1ccc(-c2cssc2=S)cc1 [Compound 11, 4-(3-thioxo-3H-1,2-dithiol-4-yl)benzoic acid] | IC50 [3]: > 100 µM
24 | 100.3 ± 0.2 | 3.6 ± 0.4 | 0.5 | 100 | CS(=O)(=O)SCCOC(=O)C=Cc1ccccc1 [Compound 25, 2-(Methylsulfonylthio)ethyl cinnamate] | IC50 [3]: 72.5 ± 4.4 µM; IC50 at 48 h [5]: 95.2 ± 8.9 µM; melting point: 76.8 to 78.5 °C

Row | Compound | inhibition at 30 µM [1] [%] | IC50 [1] [µM] | IC50 ([2]; AlphaScreen assay) [µM] | inhibition at 30 µM ([2]; AlphaScreen assay) [%] | also measured
25 | COc1ccc(/C=C/C(=O)OCCSS(C)(=O)=O)cc1OC [Compound 27, (E)-2-((methylsulfonyl)thio)ethyl 3-(3,4-dimethoxyphenyl)acrylate] | 68.9 ± 10.2 | 20.9 ± 4.9 | 0.3 | 99.7 ± 0.1 | fold more selective for STAT3 versus STAT1 ([2]; in comparison to 15 and 26): 10 fold; melting point: 99.8 to 102.7 °C
